This assay addresses T1, rat NPT2b (Rattus norvegicus, UniProt Q9JJ09).
T1 construct: Full-Length cDNA Cloning and Generation of Cell Lines Over-Expressing Human, Mouse, and Rat NPT2b; host or cells: CHO-K1 / T-REx CHO, pcDNA5/TO, tetracycline-induced
T1 sequence (Q9JJ09 1-695): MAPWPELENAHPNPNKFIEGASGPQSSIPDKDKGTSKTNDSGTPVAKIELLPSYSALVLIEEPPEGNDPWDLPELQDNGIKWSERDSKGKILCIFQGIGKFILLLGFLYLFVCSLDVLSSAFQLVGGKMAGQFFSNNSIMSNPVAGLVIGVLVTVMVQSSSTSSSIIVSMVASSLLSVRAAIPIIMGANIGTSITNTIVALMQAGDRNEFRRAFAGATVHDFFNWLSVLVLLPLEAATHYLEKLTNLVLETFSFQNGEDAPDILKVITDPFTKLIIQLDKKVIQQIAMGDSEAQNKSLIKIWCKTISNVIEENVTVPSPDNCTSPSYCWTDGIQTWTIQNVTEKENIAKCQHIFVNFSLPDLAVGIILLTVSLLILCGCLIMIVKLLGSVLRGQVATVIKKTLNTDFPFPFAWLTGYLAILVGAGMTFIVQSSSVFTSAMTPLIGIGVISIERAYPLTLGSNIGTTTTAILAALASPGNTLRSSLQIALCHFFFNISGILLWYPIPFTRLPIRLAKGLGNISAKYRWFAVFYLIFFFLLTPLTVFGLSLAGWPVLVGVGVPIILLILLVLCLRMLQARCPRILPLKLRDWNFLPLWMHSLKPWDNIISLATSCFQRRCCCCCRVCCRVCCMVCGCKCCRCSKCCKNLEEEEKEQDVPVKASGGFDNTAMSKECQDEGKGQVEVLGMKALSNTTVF
Briefly: 33P-phosphate uptake in CHO cells expressing rat NPT2b. It counts as cell-based. The settings on record: geometric mean; 2.5 µM phosphate, 60 min, room temperature. The procedure:
T‐Rex™ Chinese Hamster Ovary cells (CHO; Thermo Fisher Scientific) stably expressing human, mouse, or rat NPT2b under a tetracycline‐inducible promoter were generated using standard cDNA transfection and clone selection procedures (see Supporting Information). Cells were plated in 96‐well CytoStar‐T® scintillating microplates and were incubated overnight in growth media plus 100 ng/ml of tetracycline to induce expression of NPT2b. The next day, cells were washed 3 times with 200 µl assay buffer (137 mM NaCl, 5.4 mM KCl, 2.8 mM CaCl2, 1.2 mM MgSO4, and 14 mM Tris‐HCl buffer, pH 7.5). LY3358966 serially diluted 1‐to‐3 in DMSO was added to cells with assay buffer. An equal volume of H3 ^33PO4 (PerkinElmer) in assay buffer supplemented with 5 µM potassium phosphate was then added to initiate radiolabeled phosphate (^33P‐phosphate) uptake. The final phosphate concentration was 2.5 µM and the final DMSO concentration was 1%. Following a 60‐min incubation at room temperature, an equal volume of assay buffer containing 400 µM phloretin was added to stop ^33P‐phosphate uptake. The plate was immediately read on a Wallac MicroBeta Trilux liquid scintillation counter. Percent inhibition at all concentrations tested was calculated, and IC50 values were then determined using a 4‐parameter logistic curve fitting equation.
The vendors for target cDNA are listed in supplemental Table 1. […]

The structures appear in SMILES notation.

The IC50 is the concentration that gives 50% inhibition. Read a high IC50 as weaker potency in that assay. The compound `CC1(C)CN(C(=O)NCCCCO)CCN1Cc1cccc(C(=O)Nc2sc3c(c2C(=O)Nc2cc(F)c(CCc4ccc(C(=O)O)cc4)c(F)c2)CCCC3)c1` [LY3358966, 4‐[2‐[2,6‐difluoro‐4‐[[2‐[[3‐[[4‐(4‐hydroxybutylcarbamoyl)‐2,2‐dimethyl‐piperazin‐1‐yl]methyl]benzoyl]amino]‐4,5,6,7‐tetrahydrobenzothiophene‐3‐carbonyl]amino]phenyl]ethyl]benzoic acid] had an IC50 of 0.0268 µM.

Values taken from paper PMC8863579, “Effects of pharmacological inhibition of the sodium‐dependent phosphate cotransporter 2b (NPT2b) on intestinal phosphate absorption in mouse and rat models” (Pharmacology Research & Perspectives, 2022).
